Assay results published in ChEMBL document CHEMBL3414487, “Synthesis and biological activity of salinomycin conjugates with floxuridine” (Eur J Med Chem, 2015).
In brackets after ≈: the same amount, converted by molar mass.

Key:
[1] = Antiproliferative activity against human HL60 cells assessed as growth inhibition after 72 hrs by MTT assay; format: functional, cell-based; conditions: HL-60, 72 h
[2] = Antiproliferative activity against human vincristine-resistant HL60/Vinc cells assessed as growth inhibition after 72 hrs by MTT assay; format: functional
[3] = tested on: LoVo; assay: Antiproliferative activity against human LoVo cells assessed as growth inhibition after 72 hrs by SRB method; format: functional, cell-based; conditions: Homo sapiens, LoVo, 72 h
[4] = Antiproliferative activity against human doxorubicin-resistant LoVo/DX cells assessed as growth inhibition after 72 hrs by SRB method; format: functional, cell-based
[5] = tested on: HT-29; assay: Antiproliferative activity against human HT-29 cells assessed as growth inhibition after 72 hrs by SRB method; format: functional, cell-based; conditions: Homo sapiens, HT-29, 72 h
[6] = Antiproliferative activity against human LS180 cells assessed as growth inhibition after 72 hrs by SRB method; format: functional, cell-based; conditions: Homo sapiens, LS180, 72 h
[7] = Antiproliferative activity against human SW707 cells assessed as growth inhibition after 72 hrs by SRB method; format: functional, cell-based; conditions: Homo sapiens, SW707, 72 h
[8] = tested on: BALB/3T3; assay: Antiproliferative activity against mouse BALB/3T3 cells assessed as growth inhibition after 72 hrs by SRB method; format: cell-based; conditions: BALB/3T3, 72 h
[9] = tested on: HL-60; assay: Selectivity index, ratio of IC50 for mouse BALB/3T3 cells to IC50 for human HL60 cells; format: functional
[10] = tested on: LoVo; assay: Selectivity index, ratio of IC50 for mouse BALB/3T3 cells to IC50 for human LoVo cells; format: functional
[11] = Selectivity index, ratio of IC50 for mouse BALB/3T3 cells to IC50 for human LoVo/DX cells; format: functional
[12] = tested on: HT-29; assay: Selectivity index, ratio of IC50 for mouse BALB/3T3 cells to IC50 for human HT-29 cells; format: functional
[13] = Selectivity index, ratio of IC50 for mouse BALB/3T3 cells to IC50 for human LS180 cells; format: functional
[14] = Selectivity index, ratio of IC50 for mouse BALB/3T3 cells to IC50 for human SW707 cells; format: functional
[15] = tested on: LoVo; assay: Resistance index, ratio of IC50 for human LoVo/DX cells to IC50 for human LoVo cells
[16] = tested on: Staphylococcus aureus; assay: Antimicrobial activity against Staphylococcus aureus […] 4163 after 18 hrs by two-fold serial microdilution method; format: functional
[17] = tested on: Staphylococcus aureus; assay: Antimicrobial activity against Staphylococcus aureus ATCC 25923 after 18 hrs by two-fold serial microdilution method; format: functional; conditions: ATCC 25923, 18 h
[18] = tested on: Staphylococcus aureus; assay: Antimicrobial activity against Staphylococcus aureus ATCC 6538 after 18 hrs by two-fold serial microdilution method; format: functional; conditions: ATCC 6538, 18 h
[19] = tested on: Staphylococcus aureus; assay: Antimicrobial activity against Staphylococcus aureus ATCC 29213 after 18 hrs by two-fold serial microdilution method; format: functional; conditions: ATCC 29213, 18 h
[20] = tested on: Staphylococcus epidermidis; assay: Antimicrobial activity against Staphylococcus epidermidis ATCC 12228 after 18 hrs by two-fold serial microdilution method; format: functional; conditions: ATCC 12228, 18 h
[21] = tested on: Staphylococcus epidermidis; assay: Antimicrobial activity against Staphylococcus epidermidis ATCC 35984 after 18 hrs by two-fold serial microdilution method; format: functional; conditions: ATCC 35984, 18 h
[22] = tested on: Staphylococcus aureus; assay: Antimicrobial activity against methicillin-resistant Staphylococcus aureus 452/11 after 18 hrs by two-fold serial microdilution method; format: functional; conditions: 452/11, 18 h
[23] = tested on: Staphylococcus aureus; assay: Antimicrobial activity against methicillin-resistant Staphylococcus aureus 456/11 after 18 hrs by two-fold serial microdilution method; format: functional; conditions: 456/11, 18 h
[24] = tested on: Staphylococcus aureus; assay: Antimicrobial activity against methicillin-resistant Staphylococcus aureus 462/11 after 18 hrs by two-fold serial microdilution method; format: functional; conditions: 462/11, 18 h
[25] = tested on: Staphylococcus aureus; assay: Antimicrobial activity against methicillin-resistant Staphylococcus aureus 514/11 after 18 hrs by two-fold serial microdilution method; format: functional; conditions: 514/11, 18 h
[26] = tested on: Staphylococcus aureus; assay: Antimicrobial activity against methicillin-resistant Staphylococcus aureus 522/12 after 18 hrs by two-fold serial microdilution method; format: functional; conditions: 522/12, 18 h
[27] = tested on: Staphylococcus aureus; assay: Antimicrobial activity against methicillin-resistant Staphylococcus aureus 537/12 after 18 hrs by two-fold serial microdilution method; format: functional; conditions: 537/12, 18 h
[28] = tested on: Staphylococcus aureus; assay: Antimicrobial activity against methicillin-resistant Staphylococcus aureus 572/12 after 18 hrs by two-fold serial microdilution method; format: functional; conditions: 572/12, 18 h
[29] = tested on: Staphylococcus aureus; assay: Antimicrobial activity against methicillin-resistant Staphylococcus aureus 573/12 after 18 hrs by two-fold serial microdilution method; format: functional; conditions: 573/12, 18 h
[30] = tested on: Staphylococcus aureus; assay: Antimicrobial activity against methicillin-resistant Staphylococcus aureus 585/12 after 18 hrs by two-fold serial microdilution method; format: functional; conditions: 585/12, 18 h
[31] = tested on: Staphylococcus aureus; assay: Antimicrobial activity against methicillin-resistant Staphylococcus aureus 586/12 after 18 hrs by two-fold serial microdilution method; format: functional; conditions: 586/12, 18 h
[32] = tested on: Staphylococcus epidermidis; assay: Antimicrobial activity against methicillin-resistant Staphylococcus epidermidis 459/11 after 18 hrs by two-fold serial microdilution method; format: functional; conditions: 459/11, 18 h
[33] = tested on: Staphylococcus epidermidis; assay: Antimicrobial activity against methicillin-resistant Staphylococcus epidermidis 460/11 after 18 hrs by two-fold serial microdilution method; format: functional; conditions: 460/11, 18 h
[34] = tested on: Staphylococcus epidermidis; assay: Antimicrobial activity against methicillin-resistant Staphylococcus epidermidis 461/11 after 18 hrs by two-fold serial microdilution method; format: functional; conditions: 461/11, 18 h
[35] = tested on: Staphylococcus epidermidis; assay: Antimicrobial activity against methicillin-resistant Staphylococcus epidermidis 466/11 after 18 hrs by two-fold serial microdilution method; format: functional; conditions: 466/11, 18 h
[36] = tested on: Staphylococcus epidermidis; assay: Antimicrobial activity against methicillin-resistant Staphylococcus epidermidis 467/11 after 18 hrs by two-fold serial microdilution method; format: functional; conditions: 467/11, 18 h
[37] = tested on: Staphylococcus epidermidis; assay: Antimicrobial activity against methicillin-resistant Staphylococcus epidermidis 468/11 after 18 hrs by two-fold serial microdilution method; format: functional; conditions: 468/11, 18 h
[38] = tested on: Staphylococcus epidermidis; assay: Antimicrobial activity against methicillin-resistant Staphylococcus epidermidis 469/11 after 18 hrs by two-fold serial microdilution method; format: functional; conditions: 469/11, 18 h
[39] = tested on: Staphylococcus epidermidis; assay: Antimicrobial activity against methicillin-resistant Staphylococcus epidermidis 470/11 after 18 hrs by two-fold serial microdilution method; format: functional; conditions: 470/11, 18 h
[40] = tested on: Staphylococcus epidermidis; assay: Antimicrobial activity against methicillin-resistant Staphylococcus epidermidis 488/11 after 18 hrs by two-fold serial microdilution method; format: functional; conditions: 488/11, 18 h
[41] = tested on: Staphylococcus epidermidis; assay: Antimicrobial activity against methicillin-resistant Staphylococcus epidermidis 489/11 after 18 hrs by two-fold serial microdilution method; format: functional; conditions: 489/11, 18 h
[42] = Selectivity index, ratio of IC50 for mouse BALB/3T3 cells to IC50 for human HL60/Vinc cells; format: functional
[43] = tested on: HL-60; assay: Resistance index, ratio of IC50 for human HL60/Vinc cells to IC50 for human HL60 cells

CC[C@@H](C(=O)[C@@H](C)[C@@H](O)[C@H](C)[C@@H]1O[C@@H]([C@@H](CC)C(=O)NCc2cn([C@H]3C[C@H](n4cc(F)c(=O)[nH]c4=O)O[C@@H]3CO)nn2)CC[C@@H]1C)[C@H]1O[C@]2(C=C[C@@H](O)[C@]3(CC[C@@](C)([C@H]4CC[C@](O)(CC)[C@H](C)O4)O3)O2)[C@H](C)C[C@@H]1C
IC50 [1]: 28.7 µM
inhibition (INH) [2]: 20%
IC50 [3]: 41.2 µM
IC50 [4]: 70.4 µM
IC50 [5]: 30.1 µM
IC50 [6]: 32.8 µM
IC50 [7]: 35 µM
IC50 [8]: 29.6 µM
Selectivity Index [9]: 1.03
Selectivity Index [10]: 0.72
Selectivity Index [11]: 0.42
Selectivity Index [12]: 0.98
Selectivity Index [13]: 0.9
Selectivity Index [14]: 0.85
Ratio IC50 [15]: 1.71
MIC [16]: 30.2 µM (≈ 32 µg/mL)
MIC [17]: 30.2 µM (≈ 32 µg/mL)
MIC [18]: 30.2 µM (≈ 32 µg/mL)
MIC [19]: 60.4 µM (≈ 64 µg/mL)
MIC [20]: 30.2 µM (≈ 32 µg/mL)
MIC [21]: 30.2 µM (≈ 32 µg/mL)
MIC [22]: 60.4 µM (≈ 64 µg/mL)
MIC [23]: 60.4 µM (≈ 64 µg/mL)
MIC [24]: 60.4 µM (≈ 64 µg/mL)
MIC [25]: 242 µM (≈ 256 µg/mL)
MIC [26]: 242 µM (≈ 256 µg/mL)
MIC [27]: 242 µM (≈ 256 µg/mL)
MIC [28]: 242 µM (≈ 256 µg/mL)
MIC [29]: 60.4 µM (≈ 64 µg/mL)
MIC [30]: 121 µM (≈ 128 µg/mL)
MIC [31]: 121 µM (≈ 128 µg/mL)
MIC [32]: 30.2 µM (≈ 32 µg/mL)
MIC [33]: 30.2 µM (≈ 32 µg/mL)
MIC [34]: 30.2 µM (≈ 32 µg/mL)
MIC [35]: 30.2 µM (≈ 32 µg/mL)
MIC [36]: 60.4 µM (≈ 64 µg/mL)
MIC [37]: 60.4 µM (≈ 64 µg/mL)
MIC [38]: 60.4 µM (≈ 64 µg/mL)
MIC [39]: 30.2 µM (≈ 32 µg/mL)
MIC [40]: 121 µM (≈ 128 µg/mL)
MIC [41]: 30.2 µM (≈ 32 µg/mL)

CC[C@@H](C(=O)[C@@H](C)[C@@H](O)[C@H](C)[C@@H]1O[C@@H]([C@@H](CC)C(=O)OC[C@H]2O[C@@H](n3cc(F)c(=O)[nH]c3=O)C[C@@H]2O)CC[C@@H]1C)[C@H]1O[C@]2(C=C[C@@H](O)[C@]3(CC[C@@](C)([C@H]4CC[C@](O)(CC)[C@H](C)O4)O3)O2)[C@H](C)C[C@@H]1C
IC50 [1]: 0.37 µM
IC50 ([2]; Homo sapiens, HL60/vinc, 72 h): 2820 nM
IC50 [3]: 1.46 µM
IC50 [4]: 0.93 µM
IC50 [5]: 2.02 µM
IC50 [6]: 2.25 µM
IC50 [7]: 1.99 µM
IC50 [8]: 32.3 µM
Selectivity Index [9]: 87.24
Selectivity Index [42]: 11.45
Selectivity Index [10]: 22.11
Selectivity Index [11]: 34.71
Selectivity Index [12]: 15.98
Selectivity Index [13]: 14.35
Selectivity Index [14]: 16.22
Ratio IC50 [43]: 7.62
Ratio IC50 [15]: 0.64
MIC [16]: 8.17 µM (≈ 8 µg/mL)
MIC [17]: 8.17 µM (≈ 8 µg/mL)
MIC [18]: 4.09 µM (≈ 4 µg/mL)
MIC [19]: 4.09 µM (≈ 4 µg/mL)
MIC [20]: 4.09 µM (≈ 4 µg/mL)
MIC [21]: 4.09 µM (≈ 4 µg/mL)
MIC [22]: 32.7 µM (≈ 32 µg/mL)
MIC [23]: 32.7 µM (≈ 32 µg/mL)
MIC [24]: 32.7 µM (≈ 32 µg/mL)
MIC [25]: 8.17 µM (≈ 8 µg/mL)
MIC [26]: 8.17 µM (≈ 8 µg/mL)
MIC [27]: 8.17 µM (≈ 8 µg/mL)
MIC [28]: 8.17 µM (≈ 8 µg/mL)
MIC [29]: 8.17 µM (≈ 8 µg/mL)
MIC [30]: 16.3 µM (≈ 16 µg/mL)
MIC [31]: 8.17 µM (≈ 8 µg/mL)
MIC [32]: 32.7 µM (≈ 32 µg/mL)
MIC [33]: 32.7 µM (≈ 32 µg/mL)
MIC [34]: 32.7 µM (≈ 32 µg/mL)
MIC [35]: 32.7 µM (≈ 32 µg/mL)
MIC [36]: 32.7 µM (≈ 32 µg/mL)
MIC [37]: 32.7 µM (≈ 32 µg/mL)
MIC [38]: 32.7 µM (≈ 32 µg/mL)
MIC [39]: 8.17 µM (≈ 8 µg/mL)
MIC [40]: 32.7 µM (≈ 32 µg/mL)
MIC [41]: 8.17 µM (≈ 8 µg/mL)
